Tests used:
[1] = system: metastatic colon cancer SW620 cells; test: viability / killing of SW620 cells; assay type: cell-based; details: E266 versus E260; compound (I) as tartarate salt in 0.5% Tween-80; FIG. 3
Protocol: (§1) The compound (I), as tartarate salt was dissolved in 0.5% Tween-80 to affect the viability of several cell lines as follows.
(§2) The effect of the compound (I) (E266) on the growth profile of cancer cells which express Fer was tested. The cells that were tested were: the metastatic colon cancer cell line—SW620, the metastatic pancreatic ductal-adenocarcinoma SU.86.86 cancer cell-line—SU.86.86, the metastatic Triple Negative breast cancer cell line—MDA-MB-231, and the metastatic prostate cancer cell-line—PC3. The effect of the compound (I) (E266) on FS11 cells, a non malignant fibroblastic cell line, was also studied.

normal Epithelial cells = test: effect on normal epithelial cells; assay type: cell-based; details: FIG. 2
Protocol: Compound (I) was dissolved in 20% hydroxypropylcyclodextrane and the volume of administration (IP) was 10 ml/kg.

[2] = system: metastatic adenocarcinoma PC3 prostate Cancer cells; test: viability / killing of PC3 cells; assay type: cell-based; details: E266 versus E260; compound (I) as tartarate salt in 0.5% Tween-80; FIG. 6
Protocol: as §1, §2

[3] = system: metastatic Triple negative MDA-MB-231 Breast cancer cells; test: viability / killing of MDA-MB-231 cells; assay type: cell-based; details: E266 versus E260; compound (I) as tartarate salt in 0.5% Tween-80; FIG. 5
Protocol: as §1, §2

[4] = insolubility level in PBS/Polysorbate-80 (Tween 80) solution; assay type: physicochemical; details: 0.5 mM and 1 mM in PBS/Polysorbate-80 (Tween 80) solution at 25° C. (FIG. 1A, 1B)
[5] = system: metastatic pancreatic ductal adenocarcinoma Su.86.86 cancer cells; test: viability / killing of Su.86.86 cells; assay type: cell-based; details: E266 versus E260; compound (I) as tartarate salt in 0.5% Tween-80; FIG. 4
Protocol: as §1, §2

H358 derived xenografts = H358 derived xenografts in Nude mice; assay type: in vivo; details: 25 mg/kg daily intraperitoneal in 1% Tween 80, H358 xenografts, FIG. 7
Description: In vivo activity of the E266 (compound (I) of the present application) compared to that of the E260 (EP 2401283) in H358 derived xenografts in immune-compromised (Nude) mice.
In order to compare the relative efficacy of E266 and E260 in inhibiting the development and progression of malignant tumors in-vivo, the activity in xenograft model in mice was examined for both compounds. H358 derived xenografts in immune-compromised were elicited in (Nude) mice. The H358 cells, which are metastatic bronchioloalveolar carcinoma (BAC)-non-small cell lung cancer (NSCLC) cells, were subcutaneously injected to the back of the nude mice. When the developing xenografts reached 100 mm^3 size, the inflicted animals were divided into three groups, 10 mice in each group. One group received daily intraperitoneal injection of the solvent 1% Tween 80. This solvent/emulsifier is biocompatible and is approved for pharmaceutical applications in humans. The second group received daily intraperitoneal injection of 25 mg/kg E260 dissolved in 1% Tween 80, and the third group got daily intraperitoneal injection of 25 mg/kg, E266 dissolved in the 1% Tween 80, solvent. The progression of the elicited xenografts was monitored by measuring twice a week the volumes of the developing tumors.

CC(C)c1ccc(-c2cn3nc(N4CCC(CN5CCN(C)CC5)CC4)sc3n2)cc1 [Compound E260, reference compound]
killing metastatic colon cancer SW620 cells [1]: comparable activity
effect on normal Epithelial cells (normal Epithelial cells): no effect
killing metastatic adenocarcinoma PC3 prostate Cancer cells [2]: comparable activity
killing metastatic Triple negative MDA-MB-231 Breast cancer cells [3]: comparable activity
solubility (insolubility level) [4]: insoluble
killing metastatic pancreatic ductal adenocarcinoma Su.86.86 cancer cells [5]: comparable activity
progression of the developing tumors (xenograft volume) (H358 derived xenografts): failed to do so

Reference: patent US12084459B2, “2-(4-{1-[6-(4-isopropyl-phenyl)-imidazo[2,1-b][1,3,4]thiadiazol-2-yl]-piperidin-4-ylmethyl}-piperazin-1-yl)-ethanol and use thereof” (Urifer Ltd., priority 2020, dated 2024)
